We go through 21 compounds from US12116358B2, “Substituted indoles and methods of use thereof” (EPIZYME, INC., priority 2018, dated 2024).

In the first assay the test system is H3K36me3 in A549 cells. Put plainly: In-Cell Western (ICW) assay of SETD2 inhibitors (A549 assay). The class given is cell-based, human. The following applies: A549 cells; read-out: SETD2 A549. The essentials:
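H3K36me3 In-Cell Western: cells exposed to compound for 3 days at 4,000 cells/well, 37° C. DRAQ5 (1:1000) marked cell number, with 700/800-channel Licor read-out.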
With `Cc1cccnc1C(CCC(=O)N1CCOCC1)NC(=O)c1cc2cccc(C)c2[nH]1` (stereo not drawn) [compound 420], the IC50 was determined as 3600 nM.

As to `CC(=O)N1CC2CCC1CN2C1CCCC(NC(=O)c2cc3c(F)ccc(C)c3[nH]2)C1` (stereo not drawn) [compound 962], the IC50 was over 2000 nM.

For the compound `Cc1cc(C(=O)N[C@H]2CC[C@H](N)CC2)cnc1C(NC(=O)c1cc2cccc(C)c2[nH]1)C1CC1` (stereo partly drawn) [compound 496], the IC50 worked out at 13400 nM.

As for `Cc1ccc(F)c2cc(C(=O)NC3CCCC(N4CCC5(CCC(=O)N5CC(F)(F)F)CC4)C3)[nH]c12` (stereo not drawn) [compound 966], the IC50 was over 2000 nM.

Regarding `Cc1ccc(F)c2cc(C(=O)NC3CCCC(N4CCN5C(=O)COCC5C4)C3)[nH]c12` (stereo not drawn) [compound 1140], the IC50 was 100 nM.

`Cc1ccc(F)c2cc(C(=O)Nc3cccc(N4CCN(C(=O)CO)CC4)c3)[nH]c12` [compound 72]: the IC50 stood at 200 nM.

For the compound `Cc1ccc(F)c2cc(C(=O)Nc3cccc(C4(N)CC4)c3)[nH]c12` [compound 395], the IC50 was found to be 2200 nM.

On to `Cc1ccc(F)c2cc(C(=O)Nc3cccc(N4CC5CCN(C)C5C4)c3)[nH]c12` (stereo not drawn) [compound 245], for which the IC50 is 600 nM.

In the case of `CC(=O)N1CCN(c2cc(NC(=O)c3cc4c(F)ccc(C)c4[nH]3)cc(C(F)(F)F)c2)CC1` [compound 242], the IC50 was 600 nM.

Regarding `CC(=O)N1CCCN(C2CCCC(NC(=O)c3cc4c(F)ccc(C)c4[nH]3)C2)CC1` (stereo not drawn) [compound 979], the IC50 turned out to be 500 nM.

Take `Cc1cccnc1C(CC1CC1)NC(=O)c1cc2cccc(C)c2[nH]1` (stereo not drawn) [compound 500]: the IC50 turned out to be 14500 nM.

The same assay, now with this note: Homo sapiens; A549 cells; read-out: SETD2 A549.
In the case of `Cc1ccc(F)c2cc(C(=O)N[C@@H]3CCC[C@H](N4CC[C@H](N(CCO)S(C)(=O)=O)C4)C3)[nH]c12` [compound 1061], the IC50 turned out to be 300 nM.

On to `Cc1ccc(F)c2cc(C(=O)N[C@@H]3CCC[C@H](N4CCn5cncc5C4)C3)[nH]c12` [compound 991], for which the IC50 came out at 300 nM.

Turning to `CC(=O)N1CC2(C1)CN([C@@H]1CCC[C@@H](NC(=O)c3cc4c(F)ccc(C)c4[nH]3)C1)C2` [compound 889], the IC50 was over 2000 nM.

As for `CC(=O)N1CCN([C@@H]2CCC[C@@H](NC(=O)c3cc4c(F)ccc(C)c4[nH]3)C2)C[C@@H]1C(F)(F)F` [compound 1071], the IC50 was over 2000 nM.

For `COCC(=O)N(C)C1CCN([C@H]2CCC[C@@H](NC(=O)c3cc4c(F)ccc(C)c4[nH]3)C2)C1` (stereo partly drawn) [compound 880], the IC50 was found to be 100 nM.

In the case of `Cc1ccc(F)c2cc(C(=O)N[C@@H]3CCC[C@@H](N4CC5(CNC(=O)C5)C4)C3)[nH]c12` [compound 898], the IC50 was over 2000 nM.

Take `CC[C@H]1CN([C@@H]2CCC[C@@H](NC(=O)c3cc4c(F)ccc(C)c4[nH]3)C2)CCN1C(C)=O` [compound 1086]: the IC50 is over 2000 nM.

For `Cc1ccc(F)c2cc(C(=O)N[C@H]3CCC[C@H](c4cccnc4)C3)[nH]c12` [compound 904], the IC50 is over 2000 nM.

As to `Cc1ccc(F)c2cc(C(=O)Nc3cc(F)cc(C4CCN5C(=O)CC[C@@H]5C4)c3)[nH]c12` (stereo partly drawn) [compound 114], the IC50 came to 200 nM.

Regarding `Cc1ccc(F)c2cc(C(=O)Nc3cccc(-c4ncco4)c3)[nH]c12` [compound 261], the IC50 came to 700 nM.

For the next assay, the target named is T1, SETD2(1434-1711) (Homo sapiens, UniProt Q9BYW2).
T1 construct: SETD2 (1434-1711) Assay; catalogue N/A
T1 sequence (Q9BYW2 1434-1711): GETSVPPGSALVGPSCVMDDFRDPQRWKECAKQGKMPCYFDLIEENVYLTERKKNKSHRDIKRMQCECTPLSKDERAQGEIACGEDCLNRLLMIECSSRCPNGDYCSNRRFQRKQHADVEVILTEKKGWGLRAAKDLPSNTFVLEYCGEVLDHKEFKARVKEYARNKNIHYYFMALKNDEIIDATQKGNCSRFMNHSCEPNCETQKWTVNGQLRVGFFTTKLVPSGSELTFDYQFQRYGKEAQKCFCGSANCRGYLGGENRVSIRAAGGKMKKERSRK
Put plainly: SETD2 (1434-1711) assay. The class given is biochemical. The settings on record: read-out: SETD2 (1434-1711).
As to `Cc1ccc(F)c2cc(C(=O)N[C@@H]3CCC[C@H](N4CC[C@H](N(CCO)S(C)(=O)=O)C4)C3)[nH]c12` [compound 1061], the IC50 was 20 nM.

As to `Cc1ccc(F)c2cc(C(=O)N[C@@H]3CCC[C@H](N4CCn5cncc5C4)C3)[nH]c12` [compound 991], the IC50 was 60 nM.

`CC(=O)N1CC2(C1)CN([C@@H]1CCC[C@@H](NC(=O)c3cc4c(F)ccc(C)c4[nH]3)C1)C2` [compound 889]: the IC50 came out at 2500 nM.

Consider `CC(=O)N1CCN([C@@H]2CCC[C@@H](NC(=O)c3cc4c(F)ccc(C)c4[nH]3)C2)C[C@@H]1C(F)(F)F` [compound 1071], for which the IC50 was determined as 5200 nM.

For `COCC(=O)N(C)C1CCN([C@H]2CCC[C@@H](NC(=O)c3cc4c(F)ccc(C)c4[nH]3)C2)C1` (stereo partly drawn) [compound 880], the IC50 amounted to 20 nM.

Consider `Cc1cccnc1C(CCC(=O)N1CCOCC1)NC(=O)c1cc2cccc(C)c2[nH]1` (stereo not drawn) [compound 420], for which the IC50 came out at 2400 nM.

Turning to `Cc1ccc(F)c2cc(C(=O)N[C@@H]3CCC[C@@H](N4CC5(CNC(=O)C5)C4)C3)[nH]c12` [compound 898], the IC50 came to 4300 nM.

With `CC[C@H]1CN([C@@H]2CCC[C@@H](NC(=O)c3cc4c(F)ccc(C)c4[nH]3)C2)CCN1C(C)=O` [compound 1086], the IC50 stood at 800 nM.

Regarding `CC(=O)N1CC2CCC1CN2C1CCCC(NC(=O)c2cc3c(F)ccc(C)c3[nH]2)C1` (stereo not drawn) [compound 962], the IC50 came to 800 nM.

Consider `Cc1cc(C(=O)N[C@H]2CC[C@H](N)CC2)cnc1C(NC(=O)c1cc2cccc(C)c2[nH]1)C1CC1` (stereo partly drawn) [compound 496], for which the IC50 came out at 400 nM.

As to `Cc1ccc(F)c2cc(C(=O)N[C@H]3CCC[C@H](c4cccnc4)C3)[nH]c12` [compound 904], the IC50 was 8100 nM.

Take `Cc1ccc(F)c2cc(C(=O)Nc3cc(F)cc(C4CCN5C(=O)CC[C@@H]5C4)c3)[nH]c12` (stereo partly drawn) [compound 114]: the IC50 was 60 nM.

`Cc1ccc(F)c2cc(C(=O)NC3CCCC(N4CCC5(CCC(=O)N5CC(F)(F)F)CC4)C3)[nH]c12` (stereo not drawn) [compound 966]: the IC50 is 600 nM.

In the case of `Cc1ccc(F)c2cc(C(=O)NC3CCCC(N4CCN5C(=O)COCC5C4)C3)[nH]c12` (stereo not drawn) [compound 1140], the IC50 is 50 nM.

On to `Cc1ccc(F)c2cc(C(=O)Nc3cccc(N4CCN(C(=O)CO)CC4)c3)[nH]c12` [compound 72], for which the IC50 was 30 nM.

Take `Cc1ccc(F)c2cc(C(=O)Nc3cccc(C4(N)CC4)c3)[nH]c12` [compound 395]: the IC50 worked out at 100 nM.

Consider `Cc1ccc(F)c2cc(C(=O)Nc3cccc(-c4ncco4)c3)[nH]c12` [compound 261], for which the IC50 is 80 nM.

Consider `Cc1ccc(F)c2cc(C(=O)Nc3cccc(N4CC5CCN(C)C5C4)c3)[nH]c12` (stereo not drawn) [compound 245], for which the IC50 is 10 nM.

For `CC(=O)N1CCN(c2cc(NC(=O)c3cc4c(F)ccc(C)c4[nH]3)cc(C(F)(F)F)c2)CC1` [compound 242], the IC50 stood at 100 nM.

As for `CC(=O)N1CCCN(C2CCCC(NC(=O)c3cc4c(F)ccc(C)c4[nH]3)C2)CC1` (stereo not drawn) [compound 979], the IC50 was determined as 60 nM.

`Cc1cccnc1C(CC1CC1)NC(=O)c1cc2cccc(C)c2[nH]1` (stereo not drawn) [compound 500]: the IC50 was 3000 nM.
